Reference: US11638745B2, “Method to improve neurologic outcomes in temperature managed patients” (University of Pittsburgh—Of the Commonwealth System of …, priority 2015, dated 2023)
Entries after “also recorded” stand apart in the source; their conditions may differ.

Columns and labels:
RBM3 [1] = experiment: RBM3 protein levels by Western blot in drug-treated primary cortical neurons at 37° C. or 36° C.; type: cell-based, rat; conditions: mature DIV26 neurons, 48 h at 36° C., drug combinations; melatonin 100 μM, T090 1 μM
RBM3 [2] = experiment: as above; type: cell-based, rat; conditions: for RBM3 protein expression: DIV7 neurons cultured at 37° C., 24 h treatment with increasing dose; for RBM3 levels: 24 h treatment
Protocol: Primary Cortical Neuron Culture. Embryos (mixed gender) were isolated from timed pregnant (E16-17) Sprague Dawley rats. Neuron cultures were performed as previously described (Jackson TC, et al. (2013) Pharmacological inhibition of pleckstrin homology domain leucine-rich repeat protein phosphatase is neuroprotective: differential effects on astrocytes. J Pharmacol Exp Ther 347:516-528). Cortices were dissected in ice-cold Hanks balanced salt solution (HBSS; Life Technologies, Grand Island, N.Y., USA) containing sodium bicarbonate (SIGMA), penicillin-streptomycin (Life Technologies), and 4-(2-hydroxyethyl)-1-piperazineethanesulfonic acid (HEPES; Life Technologies). Brain tissues were dissected under a Leica M651 light microscope (Buffalo Grove, Ill., USA), and placed in a 1.5 mL tube containing ˜1 mL prepared HBSS. Tissues were minced and transferred to a 15 mL conical tube. Cells were spun 5 min/200 g/4° C. Supernatant was aspirated, cells resuspended in 2 mL trypsin solution, and incubated 8 min at 37° C. with gentle mixing. Trypsin activity was quenched in 10 mL Neurobasal/B27 (Life Technologies) containing 10% fetal bovine serum (FBS; Thermo Fisher Scientific, Pittsburgh, Pa., USA). Cells were transferred into a new 15 mL conical tube and spun 5 min/200 g/4° C. Supernatant was replaced with 1.5 mL trituration media. Cells were dissociated by 10 passages through a fire-polished glass Pasteur pipette. The cell pellet was resuspended in plating media warmed to 37° C. (Neurobasal Media/B27 supplement prepared+25 μM L-Glutamic Acid+Pen-Strep). Cell number was quantified by automatic counting on a Cellometer (Nexcelom Bioscience, Lawrence, Mass., USA). Cells were seeded onto 6-well culture plates coated with poly-D-lysine (density ˜1.2-1.5×10^6/well). Cultures were maintained by half media replacement every ˜3-4 days in vitro (DIV). The mitotic inhibitor cytosine β-D-arabinofuranoside hydrochloride (ARA-C; 4 μM final concentration) was added in study 1 experiment (e.g. DIV10-11 cultures) to ensure purity of neuronal biochemistry for initial assessment of temperature treatments. Mitotic inhibitors at low levels are non-toxic but still potentially represent a mild stressor (though necessary to guarantee neuron purity) (Ahlemeyer B, et al., (2003) Cytosine arabinofuranoside-induced activation of astrocytes increases the susceptibility of neurons to glutamate due to the release of soluble factors. Neurochem Int 42:567-581). Results of temperature treatments were confirmed in younger DIV6 neurons in the absence of ARA-C (neuron enriched cultures; >90% neurons). Astrocytes were allowed to proliferate in aged cultures, which were not treated with ARA-C. It was observed that astrocytes are necessary for long-term survival of neuron cultures (i.e. DIV26 mature neuron cultures).
Hypothermia Protocols: Neurons were maintained in a 37° C. (normothermic) incubator. Before start of hypothermia, two identical incubators of the same make/model with humidity of ˜95% (all in the same room) were programmed to 36° C. and 33° C. Incubators were allowed a minimum of 48 h equilibration time prior to starting hypothermic experiments. In some experiments, as an additional control, a thermometer was placed inside hypothermic incubators as a secondary gauge of temperature. Temperature as assessed by that approach was independently confirmed to never be under target temperature and fluctuate by no more than ˜0.5° C. On DIV of interest, culture plates were assigned to one of the three experimental temperatures for 24 or 48 h.
Drug Treatments: Drugs were prepared in DMSO or PBS (i.e. for FGF21). All drugs were diluted in conditioned culture media and applied for 24 h. Controls received equal amounts of DMSO/PBS without drugs. Primary neurons were harvested for biochemistry at key time points. RBM3 and CIRBP levels were measured by Western blot. Investigators were not blinded to temperature treatment groups.
Western Blot. […]

RBM3 mRNA = conditions: mouse liver, microarray; cited from earlier work
[3] = mammals; cited from earlier work
[4] = used to chemically lower core body temperature; cited from earlier work
[5] = system: piglet model of perinatal ischemic brain injury; conditions: hypothermia 33.5° C.; cited from earlier work
AKT/ERK = AKT/ERK phosphorylation by Western blot in FGF21-treated neurons; type: cell-based, rat; conditions: neurons at 37° C., 24 h later
Protocol: Primary Cortical Neuron Culture. Embryos (mixed gender) were isolated from timed pregnant (E16-17) Sprague Dawley rats. Neuron cultures were performed as previously described (Jackson TC, et al. (2013) Pharmacological inhibition of pleckstrin homology domain leucine-rich repeat protein phosphatase is neuroprotective: differential effects on astrocytes. J Pharmacol Exp Ther 347:516-528). Cortices were dissected in ice-cold Hanks balanced salt solution (HBSS; Life Technologies, Grand Island, N.Y., USA) containing sodium bicarbonate (SIGMA), penicillin-streptomycin (Life Technologies), and 4-(2-hydroxyethyl)-1-piperazineethanesulfonic acid (HEPES; Life Technologies). Brain tissues were dissected under a Leica M651 light microscope (Buffalo Grove, Ill., USA), and placed in a 1.5 mL tube containing ˜1 mL prepared HBSS. Tissues were minced and transferred to a 15 mL conical tube. Cells were spun 5 min/200 g/4° C. Supernatant was aspirated, cells resuspended in 2 mL trypsin solution, and incubated 8 min at 37° C. with gentle mixing. […] Cell number was quantified by automatic counting on a Cellometer (Nexcelom Bioscience, Lawrence, Mass., USA). […]
Drug Treatments: Drugs were prepared in DMSO or PBS (i.e. for FGF21). […] RBM3 and CIRBP levels were measured by Western blot. […]
Western Blot. […] Protein concentration was determined using the BCA assay (Thermo Scientific-PIERCE). […]

PND17 rats given CCI = experiment: PND17 CCI with TH/TTM ± FGF21 (MWM behavior, cell death histology); type: in vivo, rat; conditions: 1 mg/kg FGF21 IV at start and end of TH/TTM
Protocol: TTM and TH. PND17 and 12 wk adult Sprague Dawley rats receive external cooling. Endogenous RBM3/β-Klotho levels is compared in male and female rats. The TTM group is cooled to 36° C. within ˜5 min then maintained to target temperature for 7 h: 25 min. The TH group is cooled to 33° C. over ˜1 h then to target temperature for 3 h: 15 min then rewarmed at a rate of 1° C./hr. Time spent<37° C. is equal in all groups (8 h: 30 mins). FIGS. 11A, 11B, 12A, and 12B illustrate exemplary protocols for these groups.
PND17 CCI. Rats are given CCI in Aim 271, 72. Isoflurane anesthetized ˜35 g PND17 rats are craniotomized at the left parietal cortex and injured by pneumatic impactor (velocity, 4 m/s; depth, 2.5 mm). Randomization is by (A) temperature (37° C., 36° C., 33° C.), and (B)±CCI±1 mg/kg FGF21 or PBS vehicle. Two bolus IV injections of drug will be given—at the start and end of TH/TTM. Technicians are blind to treatments.
MWM Behavior. Rats are given MWM testing 73, 74. […] Motor skill is assessed measuring swim speed proving cognitive performance is not confounded by motor deficits.
Cell Death. […] Surviving CA1/CA3 cells are counted in H & E stained brain sections 7 d post-injury by unbiased stereology. 21 d contusion volume is measured after MWM in separate rats […]

[6] = young DIV6 neurons at 37° C., same concentrations
[7] = young DIV6 neurons cooled to 36° C., 5 nM FGF21, 100 μM melatonin, 1 μM T090, 5 μM SRT1720, 1 μM AZD1080

**Q.** Which results are given for `O=S(=O)(c1ccccc1)N(CC(F)(F)F)c1ccc(C(O)(C(F)(F)F)C(F)(F)F)cc1` [T090]?
**A.** RBM3 induction (RBM3 [1]): failed to do so; RBM3 protein expression (RBM3 [2]): minor effects on RBM3 protein expression; RBM3 levels (RBM3 [2]; [6]): mildly increased RBM3 levels; RBM3 levels (RBM3 [2]; young DIV6 neurons at 37° C., same concentrations, listed as T0901317): mildly induced RBM3; RBM3 levels (RBM3 [2]; [7]): mildly increased RBM3 levels; RBM3 levels (RBM3 [2]; young DIV6 neurons cooled to 36° C., 5 nM FGF21, 100 μM melatonin, 1 μM T090, 5 μM SRT1720, 1 μM AZD1080, listed as T0901317): augmented RBM3 upregulation; also recorded: mildly induced RBM3; RBM3 mRNA (RBM3 mRNA): upregulate RBM3 mRNA

**Q.** For `O=C(Nc1ccccc1-c1cn2c(CN3CCNCC3)csc2n1)c1cnc2ccccc2n1` [SRT1720], which RBM3 levels (RBM3 [2]; [6]) is on record?
**A.** Its RBM3 levels is “Neither SRT1720 (Sirtuin antagonist) nor AZD1080 (GSK-3β antagonist) increased RBM3 levels; also recorded: did not affect RBM3 levels”.

**Q.** What about the RBM3 levels (RBM3 [2]; [7]) of the same molecule?
**A.** The RBM3 levels was “Neither SRT1720 (Sirtuin antagonist) nor AZD1080 (GSK-3β antagonist) increased RBM3 levels; also recorded: did not affect RBM3 levels”.

**Q.** Which body temperature [3] does the source give for `Nc1ncnc2c1ncn2[C@@H]1O[C@H](COP(=O)(O)O)[C@@H](O)[C@H]1O` [5-AMP, adenosine monophosphate] here?
**A.** Its body temperature is “chemically induce hypothermia”.

**Q.** And the side effects [4]?
**A.** The side effects was “profound hypotension and hyperglycemia”.

**Q.** For `COc1ccc2[nH]cc(CCNC(C)=O)c2c1` [melatonin], which hypothermia induced neuroprotection [5] is on record?
**A.** The hypothermia induced neuroprotection was “augments hypothermia (33.5° C.) induced neuroprotection”.

**Q.** What about the RBM3 induction (RBM3 [1]) of the same molecule?
**A.** The RBM3 induction was “failed to do so”.

**Q.** And the RBM3 protein expression (RBM3 [2])?
**A.** Its RBM3 protein expression is “minor effects on RBM3 protein expression”.

**Q.** What about the RBM3 levels (RBM3 [2]; [6]) of the same molecule?
**A.** Its RBM3 levels is “failed to do so”.

**Q.** What about the RBM3 levels (RBM3 [2]; [7]) of the same molecule?
**A.** Its RBM3 levels is “augmented RBM3 upregulation; also recorded: augmented RBM3 levels; also recorded: increased hypothermia-induced RBM3”.

**Q.** And the RBM3 levels (RBM3 [2]; young DIV6 neurons cooled to 36° C., 5 nM FGF21, 100 μM melatonin, 1 μM T090, 5 μM SRT1720, 1 μM AZD1080, listed as Melatonin)?
**A.** Its RBM3 levels is “augment RBM3 induction”.

**Q.** With `N#Cc1ccc2[nH]c(O)c(-c3ccc(CN4CCOCC4)cn3)c2c1` [AZD1080] as the molecule, how does the RBM3 levels (RBM3 [2]; [6]) read?
**A.** Its RBM3 levels is “Neither SRT1720 (Sirtuin antagonist) nor AZD1080 (GSK-3β antagonist) increased RBM3 levels; also recorded: did not affect RBM3 levels”.

**Q.** And the RBM3 levels (RBM3 [2]; [7])?
**A.** The RBM3 levels was “Neither SRT1720 (Sirtuin antagonist) nor AZD1080 (GSK-3β antagonist) increased RBM3 levels; also recorded: did not affect RBM3 levels”.

B1: FGF21: Fibroblast growth factor 21 protein, purchased from R&D Systems (protein, UniProt Q9NSA1 29-209, looked up)
Fibroblast growth factor 21: HPIPDSSPLLQFGGQVRQRYLYTDDAQQTEAHLEIREDGTVGGAADQSPESLLQLKALKPGVIQILGVKTSRFLCQRPDGALYGSLHFDPEACSFRELLLEDGYNVYQSEAHGLPLHLPGNKSPHRDPAPRGPARFLPLPGLPPALPEPPGILAPQPPDVGSSDPLSMVGPSQGRSPSYAS
**Q.** What does the source list for B1?
**A.** RBM3 induction (RBM3 [1]): failed to do so; RBM3 levels above baseline (RBM3 [2]; DIV7 neurons cultured at 36° C., 24 h, dose effect): increased RBM3 above baseline in a bi-phasic manner; RBM3 protein expression (RBM3 [2]): minor effects on RBM3 protein expression; RBM3 levels (RBM3 [2]; [6]): failed to do so; RBM3 levels (RBM3 [2]; [7]): augment RBM3 induction; also recorded: induces RBM3; also recorded: augments RBM3; also recorded: augmented RBM3 upregulation; also recorded: augmented RBM3 levels; also recorded: increased hypothermia-induced RBM3; body temperature [3]: slight body temperature reduction; AKT/ERK phosphorylation (AKT/ERK): decreased; TH/TTM induced neuroprotection after a CCI (PND17 rats given CCI): augments TH/TTM induced neuroprotection
